Patent US20250360126A1, “TARGETING AN ENZYME REQUIRED FOR ACUTE MYELOID LEUKEMIA” (Albert Einstein College of Medicine, priority 2023, published 2025)

Experiments:
[1] = test system: OCI-AML3 human cell line (degron-inducible NPM1c); assay: NPM1c degradation in OCI-AML3 NPM1c-degron cells, glutamate-glutamylation by Western blot; format: cell-based
Protocol: FIGS. 3A and 3B illustrate that TTLL4 catalyzes NPM1 and NPM1c glutamate-glutamylation. FIG. 3A is a Western blot of an AML3-NPM1c-degron cell line with a doxycycline (DOX)-inducible TTLL4 shRNA knockdown. Scrambled shRNA or TTLL4 shRNA cells were treated +/−DOX, resulting in loss of glutamate-glutamylation on both NPM1c-degron and NPM1 wild type proteins (top gel, +DOX). FIG. 3B is a summary of a qRT-PCR analysis of shTTLL4 cells treated with DOX.
A doxycycline-inducible TTLL4 shRNA was introduced to this cell line. TTLL4kd eliminated NPM1c glutamate-glutamylation and reduced cellular proliferation (FIGS. 3A, 3B, and 4A). In addition, CRISPR-Cas9 mediated knockout of TTLL4 in OCI-AML3 cells reduced colony formation in methylcellulose (FIG. 4B, methylcellulose colony forming assays are used to detect cell proliferation and hematopoietic/progenitor activity) and increased apoptosis (FIG. 4C).

[2] = target: T1, recombinant human TTLL4 catalytic domain (Homo sapiens, UniProt Q14679); assay: TTLL4 activity immunoassay (anti-glu immuno-detection of glutamylated Nap2 substrate); format: biochemical; conditions: 0.2 millimolar ATP, 1 millimolar glutamic acid, 30° C., 10 minutes, read-out: in vitro TTLL4 IC50
T1 construct: TTLL4 catalytic domain (composed of residues 561-1199); made in house; host or cells: E. coli
T1 sequence (Q14679 561-1199): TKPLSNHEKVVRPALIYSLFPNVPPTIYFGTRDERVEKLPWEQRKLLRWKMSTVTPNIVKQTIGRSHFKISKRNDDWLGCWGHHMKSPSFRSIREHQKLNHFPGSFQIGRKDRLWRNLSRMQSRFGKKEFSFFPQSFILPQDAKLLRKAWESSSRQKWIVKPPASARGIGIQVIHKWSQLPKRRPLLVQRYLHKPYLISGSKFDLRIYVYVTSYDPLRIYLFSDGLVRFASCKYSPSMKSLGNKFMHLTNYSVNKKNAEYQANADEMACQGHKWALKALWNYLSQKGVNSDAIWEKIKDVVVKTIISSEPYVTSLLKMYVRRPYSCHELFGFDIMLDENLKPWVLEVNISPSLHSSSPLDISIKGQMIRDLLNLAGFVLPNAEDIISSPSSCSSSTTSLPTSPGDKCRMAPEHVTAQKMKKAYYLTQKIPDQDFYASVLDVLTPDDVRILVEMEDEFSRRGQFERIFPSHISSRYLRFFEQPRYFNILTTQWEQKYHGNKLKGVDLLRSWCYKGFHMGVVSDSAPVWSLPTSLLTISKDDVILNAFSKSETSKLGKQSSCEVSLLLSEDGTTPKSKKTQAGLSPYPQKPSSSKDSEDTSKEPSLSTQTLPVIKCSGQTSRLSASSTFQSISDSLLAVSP
Protocol: To measure TTLL4 activity and inhibition by lead compounds, we used an immunoassay. The antibody against mono-glutamate-glutamylation was prepared by immunizing white rabbits with the following peptide: MY {Glu (Glu)} DDEEESEAQGPKC (based on studies published here: doi: 10.1016/S0091-679X (10) 95003-6). The serum was purified by cross-adsorption against a non-glutamylated peptide: MYEDDEEESEAQGPKC. The purified antibody was stored in PBS with 0.02% Preclin 300. The final ELISA titer from the purified antibodies against the glutamylated peptide was >1:512,000. These antibodies are noted as “anti-glu”.
To measure activity, recombinant human TTLL4 catalytic domain (composed of residues 561-1199) was produced in E. coli and purified via nickel-affinity and size exclusion column (Superdex 200) chromatography. Similarly, the glutamate-glutamylation substrate Nap2 (gene from Xenopus tropicalis) was produced in E. coli and purified via nickel-affinity size exclusion column (Superdex 200) chromatography. […] Intensity measurements were quantified with the Microar-ray Profile plugin for FIJI/ImageJ and analyzed with a 4-parameter model in Graphpad Prism v9.

IC50 [2] [µM] | Compound | glutamate-glutamylation of the NPM1 wt protein after degradation of NPM1c [1]
 | CC[C@H](C(=O)N1CCCC[C@H]1C(=O)O[C@H](CCc1ccc(OC)c(OC)c1)c1ccccc1OCC(=O)NCCCCCCOc1cccc2c1C(=O)N(C1CCC(=O)NC1=O)C2=O)c1cc(OC)c(OC)c(OC)c1 (stereo partly drawn) [dTAG-13] | loss of glutamate-glutamylation of the NPM1 wt protein
9 | COc1ccc(-c2cc3c(SCC(=O)Nc4c(C)cc(C)cc4C)nccn3n2)cc1 [Candidate 1] | 
40 | O=C(Cn1c(=O)c(F)cn(C2CCCO2)c1=O)N1N=C(c2ccc(Cl)cc2)CC1c1ccco1 (stereo not drawn) [Candidate 2] | 
